What is called EC50 is the concentration needed to bring the measured effect to its halfway point.

This note sets out measurements from US20150366839A1, “Schisantherin A for the treatment of neurodegenerative diseases” (priority 2014, published 2015).

Test [1] relates to SH-SY5Y cells. Kind of test: MTT neuroprotection against MPP+-induced cell damage. The format is cell-based. As to the method: Human neuroblastoma SH-SY5Y cells were purchased from the American Type Culture Collection (ATCC, Manassas, Va., USA) and cultured in a humidified 5% (v/v) CO2 atmosphere in 37° C. in Dulbecco's Modified Eagle Medium (DMEM) (Life technologies, NY, USA) supplemented with 10% FBS, 1% penicillin (100 U/mL) and streptomycin (100 μg/mL). All experiments were carried out 48 h after the cells were seeded.
In another study, SH-SY5Y cells were seeded in 96-well plates (1×10^4 cells/well) for 48 h. SH-SY5Y cells were pre-treated with different concentrations of the five lignans for 12 h and the cell viability was checked by MTT assay. SH-SY5Y cells were pre-treated with different concentrations of the five lignans for 12 h and then exposed to 2 mM MPP or vehicle for 36 h. Cells were incubated at 37° C. for 4 h in 0.5 mg/mL MTT solution (prepared in serum free DMEM medium). The medium was then discarded and 100 μL of DMSO was added to each well to dissolve the violet-formazan crystals. The absorbance at 570 nm with 655 nm as a reference wavelength was measured by a multi-label counter (Wallac VICTOR3TMV, Perkin Elmer, Netherlands). Cell viability was expressed as a percentage of the value of the cells without MPP treatment. The LC50 and EC50 were calculated by GraphPad Prism V5.0 (GraphPad Software, Inc., San Diego, Calif.).
To evaluate the cytotoxicity of five selected lignans of S. chinensis, SH-SY5Y cells were treated with various concentrations of the tested compounds for 12 h and the cell viability was measured using the MTT assay. […] To further study the neuroprotective activities of the five lignans in vitro, cells were treated with various concentrations of the tested compounds for 12 h before exposed to MPP^+. […] Values represent mean±S.D. ###P<0.005 versus control group; *p<0.05, **p<0.01 and *** p<0.005 versus MPP group. […] The therapeutic index of SchiA and SC were 14.9 and 8.8, respectively.
The inventors also investigated the contribution of the PI3K/Akt pathway in the neuroprotective effects of SchiA. The inventors measured phosphorylation-Akt (p-Akt) levels after pre-treated with 60 μM SchiA for 12 h and then exposed to 2 mM MPP for another 36 h. […] And MPP^+-induced down-regulation of Akt expressions was inhibited by SchiA treatment. […] To further validate whether the activation of PI3K/Akt signaling pathway, the inventors determined the blocking effect of PI3K/Akt inhibitor such as AKT inhibitor IV on the in vitro neuroprotective effect of SchiA. SH-SY5Y cells were pre-incubated with Akt inhibitor IV (2 μM) for 1 h and then treated with SchiA for 12 h. Drug-treated cells were further treated with 2 mM MPP for another 36 h, MTT assay was used to determinate cell viability.

Test [2] has as its system intracellular ROS in SH-SY5Y cells. Kind of test: 6-OHDA-induced ROS accumulation (CM-H2DCFDA). The test is classed as cell-based, Human. As to the method:
SH-SY5Y cells seeded at 96-well plates (1×10^4 cells/well) were incubated with 5 μM fluorescent probe CM-H2DCFDA at 37° C. for 20 min after treatment with SchiA or 6-OHDA. The fluorescence intensity was determined by multi-label counter at wavelengths of excitation at 493 nm and emission at 522 nm.
The generation of excess ROS by auto-oxidation of 6-OHDA, considered to be involved in 6-OHDA-induced cellular injury (Cohen and Heikkila 1974). Therefore, to examine whether SchiA prevented the production of ROS from 6-OHDA, the accumulation of ROS was measured by fluorescent probe CM-H2DCFDA in SH-SY5Y cells. The fluorescence intensity of CM-H2DCFDA was measured after SH-SY5Y cell were pretreated with different concentrations of SchiA for 12 h and then treated with or without 400 μM 6-OHDA for 4 h. The results of FIG. 3 are expressed as a percentage of that of the control group. ###P<0.005 versus control group; *p<0.05, **p<0.01 and *** p<0.005 versus 6-OHDA group.

Test [3] deals with zebrafish larvae. The format is in vivo. The settings on record: 2.5-10 μM with 250 μM 6-OHDA, 4 days, 10 min session. As to the method:
The wild type zebrafish was used for this study.
Zebrafish behaviour was analyzed using a digital video tracking system (Viewpoint ZebraLab system). The system consists of a digital video camera connected to a computer system running the analysis software ZebraLab Man Rev 3.6B.
Moreover, 6-OHDA treatment also markedly altered the swimming behavior of zebrafish. […] Values in FIG. 9 represent the mean±SEM of 12 fish larvae per group of 3-time independent experiments. ###P<0.005 versus control group; *p<0.05, **p<0.01 and *** p<0.005 versus 6-OHDA group. […] The total swimming distance in 10 min travelled by the zebrafish larvae was decreased after exposure to 6-OHDA.

Test [4] relates to caspase-3. Kind of test: Caspase-3 activity assay (EnzChek kit). The following applies: 60 μM 12 h, then 2 mM MPP+ 36 h. The format is cell-based, Human. As to the method: Caspase-3 activity was detected using the EnzChek® Caspase-3 Assay Kit according to the manufacturer's protocol. In brief, the reaction mixture (total volume 100 μL) contained 50 μL of cell lysate and 50 μL of caspase-3 substrate (Z-DEVD-R110 substrate; the final concentration is […]) in assay buffer, and the assay was carried out in a 96-well plate. To account for non-specific hydrolysis of substrate, the samples were incubated at room temperature for approximately 30 minutes and measured the fluorescence (excitation/emission˜496/520 nm).
The inventors performed Western blot to measure the expression of active-form of caspase-3 and caspase-7 in SH-SY5Y cells. Cells were pretreated with 60 μM SchiA for 12 h and then treated with 2 mM MPP for another 36 h. Cells were lysed and examined by western blot. […] Caspase-3 activity was expressed as units per mg protein. ###p<0.005 versus control group; *p<0.05, **p<0.01 and *** p<0.005 versus MPP+ group.

Turning to `COc1cc2c(c(OC)c1OC)-c1c(cc3c(c1OC)OCO3)C[C@H](C)[C@](C)(O)[C@H]2OC(=O)c1ccccc1` [SchiA, Schisantherin A], in test [1] (pre-treated 12 h, then 2 mM MPP+ 36 h), the EC50 was 8.1 µM. The “protection against MPP+-induced cell damage (cell viability)” value in test [1] (various concentrations 12 h before MPP+) is listed as “protect against MPP^+-induced cell damage in a dose-dependent manner”. Also, in test [2] (3, 6, 12, 25 and 50 μM 12 h, then 400 μM 6-OHDA 4 h), the “6-OHDA-induced intracellular ROS level” value is given as “significantly reduced”. The “intracellular ROS levels, compound alone” value in test [2] (without 6-OHDA) is “no obvious effect”. Further, in test [3], the “6-OHDA-induced reduction of total distance of movement” value was “inhibited 6-OHDA-induced reduction of total distance of movement by zebrafish in a dose dependent manner”. Further, the “MPP+-induced elevation of caspase-3 activity” value in test [4] was “dramatically suppressed”.
